From patent US20220119761A1, “ASPERGILLUS NIGER F22 STRAIN HAVING NEMATICIDAL ACTIVITY AGAINST PLANT-PARASITIC NEMATODES, AND USE THEREOF” (INDUSTRY FOUNDATION OF CHONNAM NATIONAL UNIVERSITY, priority 2015, published 2022)

Test system: Meloidogyne incognita
Test: 96-well microplate bioassay of nematicidal activity of culture filtrates on Meloidogyne spp. larva suspension
Details: 1 μg/mL, control drug, after 3 days
Method: To select filamentous fungi having an excellent nematicidal activity, the present inventors have received 61 culture filtrates of filamentous fungi to screen their nematicidal activities. Specifically, roots of a tomato plant infected with Meloidogyne spp. were washed with running water to remove foreign substances. Thereafter, the well-washed roots were cut into pieces at intervals of 1 cm or less, and put into a blender. Then, a 0.5% sodium hypochlorite solution was added at such an amount that the roots were immersed, and the roots were ground for one minute. Subsequently, the ground roots were filtered through a 65 μm sieve to remove root debris, and the eggs passed through the sieve were collected through a 25 μm sieve, and then washed with sterilized water several times. A concentration of the collected Meloidogyne spp. eggs was measured using a stereoscopic microscope.
The nematicidal activities of the culture filtrates of the 61 fungi were screened using a 96-well microplate bioassay. 45 μL of a Meloidogyne spp. larva suspension, which includes approximately 50 larvae, was added to each of holes, and then treated with a 10% culture filtrate. After 3 days of the sample treatment, the nematicidal activity was determined using the following equation. […]

Q: For abamectin, which nematicidal activity is on record?
A: The nematicidal activity was 95%.
